Results as given in US5521155A, “Amides of teicoplanin compounds” (Gruppo Lepetit S.p.A, priority 1985, dated 1996).
Converted amounts (≈) assume the structure as drawn.

How the values were obtained:
[1] = Isoelectric point (pI) by isoelectrofocusing with bioautography detection; type: physicochemical; conditions: IEF technique, polyacrylamide gel
Source text: The isoelectrofocusing (IEF) technique coupled with bioautography detection has been used for the determination of the pI of representative compounds of the invention using the following materials: AMPHOLINE carrier ampholytes (40% w/v) were purchased from LKB Produketer AB, Bromma, Sweden. Acrylamide, N,N'-methylenbisacrylamide (BIS), N,N,N',N'-tetramethylethylenediamine (TEMED) and ammonium persulfate were from Bio Rad Laboratorie, Richmond, Calif., USA. Glycerol and Antibiotic agar N. 1 (Grove and Randall medium N. 1) were from E. Merck Darmstadt FRG. GEL FIX polyester sheets were purchased from Serva Feinbiochemica Heidelberg. Phenolindo (2,6-dichlorophenol) came from BDH Chemicals Ltd. Poole, England.
IEF was made on gel slab using a LKB MULITPHOR 2117 cell and a Bio-Rad Power Supply Model 1420A. Slabs of 24.5×11.5 cm and 1 mm thickness were prepared on a sheet of GEL FIX. Polyacrylamide gels with a concentration of 8% T and with a cross-linkage of 4% C (30% T stock solution was prepared by dissolving 28.8 g of acrylamide and 1.2 g of bis-acrylamide in 100 ml distilled water), glycerol, 3.5% v/v, 2% AMPHOLINE, 0.05% ammonium persulphate as catalyst and 0.05% TEMED as accelerator. The carrier ampholite composition for 35 ml gelling solution was as follows:
The electrode solutions, as recommended by LKB for the respective pH range, were:
The gel was cooled to 4° C. with the aid of a LKB 2209 refrigerated constant temperature circulator. After prefocusing for 30 min. at 5 W, the samples (20 μl containing 0.2 to 2.5 μg of antibiotic) were loaded into the slot at the cathodic side. Electrofocusing was performed using 10 W constant power and was completed after 3-31/2 hours with a final potential of 1400 V.
The pH values were determined by dividing a portion of the gel into 1 cm sections, and eluting the individual pieces at room temperature with 1 ml of 10 mM KCl prior to pH readings.
The isoelectric point of each antibiotic was determined by interpolation on a curve obtained by plotting pH values versus the distance from the anode.
Polyacrylamide gel was placed on a 3 mm layer of agar medium N. 1 inoculated with 1% of Bacillus subtilis ATCC 6633 spore (0.5 OD at 600 nm). After 10 min the gel was removed and the plate was incubated overnight at 37° C. and examined for inhibition zones. The contrast between the area of lysis and that of bacterial growth was enhanced by use of Phenolindo(2,6-dichlorophenol) 1% w/v (oxidation-reduction indicator).

Acid-base titration (pK) = type: physicochemical; conditions: acid-base titration in METHYLCELLOSOLVE/H2O 4:1 (v/v), 0.01N KOH
Procedure: The following table (Table IV) reports the acid-base titration data of some representative compounds of the invention. The assays were carried out in METHYLCELLOSOLVE/H2 O, 4:1(v/v). A sample is dissolved in METHYLCELLOSOLVE/H2 O, 4:1(v/v) (10 umole in about 20 ml) and then 0.01N HCl (2 ml) is added and the mixture is titrated with 0.01N KOH in the same solvent mixture.

S. pyogenes L 49 = test: In vivo test in mice experimentally infected with S. pyogenes L 49 (ED50); conditions: mice infected with S. pyogenes L 49; for ED50, route of administration os.: oral
S. pyogenes C 203 = test: In vitro antibacterial activity, standard agar-dilution test (MIC); type: cell-based; conditions: inoculum about 10^4 CFU/ml, 18-24 h at 37° C.
Procedure: (§1) The culture medium ISOSENSITEST BROTH (Oxoid) and the colture medium TODD-[…] BROTH (Difco) are used for growing staphylococci and streptococci, respectively. Broth cultures are diluted so that the final inoculum is about 10^4 colony forming units/ml (CFU/ml).

[2] = tested on: Proteus vulgaris X 19H ATCC 881; test: as above; type: cell-based; conditions: inoculum about 10^4 CFU/ml, 18-24 h at 37° C.
Procedure: as §1

[3] = tested on: S. epidermidis ATCC 12228; test: as above; type: cell-based; conditions: inoculum about 10^4 CFU/ml, 18-24 h at 37° C.
Procedure: as §1

S. faecalis ATCC 7080 = test: as above; type: cell-based; conditions: inoculum about 10^4 CFU/ml, 18-24 h at 37° C.
Procedure: as §1

S. pneumoniae UC 41 = test: as above; type: cell-based; conditions: inoculum about 10^4 CFU/ml, 18-24 h at 37° C.
Procedure: as §1

E. coli SKF 12140 = test: as above; type: cell-based; conditions: inoculum about 10^4 CFU/ml, 18-24 h at 37° C.
Procedure: as §1

S. aureus Tour = test: as above; type: cell-based; conditions: inoculum about 10^4 CFU/ml, 18-24 h at 37° C.
Procedure: as §1

[4] = tested on: Pseudomonas aeruginosa ATCC 10145; test: as above; type: cell-based; conditions: inoculum about 10^4 CFU/ml, 18-24 h at 37° C.
Procedure: as §1

Row | Compound | Isoelectric point (pI) [1] | pK2 (Acid-base titration (pK); salt form per Table IV) | pK3 (Acid-base titration (pK); value not in brackets) | MIC S. pyogenes C 203 (S. pyogenes C 203) [µg/mL] | MIC Proteus vulgaris X 19H ATCC 881 [2] [µg/mL] | MIC S. epidermidis ATCC 12228 [3] [µg/mL] | MIC S. faecalis ATCC 7080 (S. faecalis ATCC 7080) [µg/mL] | MIC S. pneumoniae UC 41 (S. pneumoniae UC 41) [µg/mL] | MIC E. coli SKF 12140 (E. coli SKF 12140) [µg/mL] | MIC S. aureus Tour (S. aureus Tour) [µg/mL] | MIC Pseudomonas aeruginosa ATCC 10145 [4] [µg/mL] | ED50, route of administration os. (S. pyogenes L 49) [mg/kg] | ED50, route of administration s.c (S. pyogenes L 49) [mg/kg]
1 | CCCCCN(CCCCC)CCCNC(=O)C1NC(=O)C2NC(=O)C(NC(=O)C3NC(=O)C4NC(=O)C(Cc5ccc(c(Cl)c5)Oc5cc3cc(c5O)Oc3ccc(cc3Cl)C2OC2OC(CO)C(O)C(O)C2NC(C)=O)NC(=O)C(N)c2ccc(O)c(c2)Oc2cc(O)cc4c2)c2ccc(O)c(c2)-c2c(OC3OC(CO)C(O)C(O)C3O)cc(O)cc21 (stereo not shown) [Compound 43] | 8.7 |  |  |  |  |  |  |  |  |  |  |  | 
2 | CCCCCCN(CCCCCC)CCCNC(=O)C1NC(=O)C2NC(=O)C(NC(=O)C3NC(=O)C4NC(=O)C(Cc5ccc(c(Cl)c5)Oc5cc3cc(c5O)Oc3ccc(cc3Cl)C2OC2OC(CO)C(O)C(O)C2NC(C)=O)NC(=O)C(N)c2ccc(O)c(c2)Oc2cc(O)cc4c2)c2ccc(O)c(c2)-c2c(OC3OC(CO)C(O)C(O)C3O)cc(O)cc21 (stereo not shown) [Compound 44] | 8.7 |  |  |  |  |  |  |  |  |  |  |  | 
3 | COC(=O)CNC(=O)C1NC(=O)C2NC(=O)C(NC(=O)C3NC(=O)C4NC(=O)C(Cc5ccc(c(Cl)c5)Oc5cc3cc(c5O)Oc3ccc(cc3Cl)C2OC2OC(CO)C(O)C(O)C2NC(C)=O)NC(=O)C(N)c2ccc(O)c(c2)Oc2cc(O)cc4c2)c2ccc(O)c(c2)-c2c(OC3OC(CO)C(O)C(O)C3O)cc(O)cc21 (stereo not shown) [Compound 47] | 7.8 |  |  |  |  |  |  |  |  |  |  |  | 
4 | CC(=O)NC1C(OC2c3ccc(c(Cl)c3)Oc3cc4cc(c3O)Oc3ccc(cc3Cl)CC3NC(=O)C(N)c5ccc(O)c(c5)Oc5cc(O)cc(c5)C(NC3=O)C(=O)NC4C(=O)NC3C(=O)NC2C(=O)NC(C(=O)NCC(=O)O)c2cc(O)cc(O)c2-c2cc3ccc2O)OC(CO)C(O)C1O (stereo not shown) [Compound 56] | 5.8 |  |  |  |  |  |  |  |  |  |  |  | 
5 | COC(=O)C(CCCCN)NC(=O)C1NC(=O)C2NC(=O)C(NC(=O)C3NC(=O)C4NC(=O)C(Cc5ccc(c(Cl)c5)Oc5cc3cc(c5O)Oc3ccc(cc3Cl)C2O)NC(=O)C(N)c2ccc(O)c(c2)Oc2cc(O)cc4c2)c2ccc(O)c(c2)-c2c(O)cc(O)cc21.Cl.Cl (stereo not shown) [Compound 73] |  | 6.5 | 8.9 | 0.12 | 32 | 0.06 | 0.12 | 0.06 | 4 | 0.06 | 32 | > 300 | 0.81
6 | Cl.Cl.NC1C(=O)NC2Cc3ccc(c(Cl)c3)Oc3cc4cc(c3O)Oc3ccc(cc3Cl)C(O)C3NC(=O)C(NC(=O)C4NC(=O)C(NC2=O)c2cc(O)cc(c2)Oc2cc1ccc2O)c1ccc(O)c(c1)-c1c(O)cc(O)cc1C(C(=O)NC1CN2CCC1CC2)NC3=O (stereo not shown) [Compound 83] | 8.9 |  |  | 0.06 | 64 | 0.06 | 0.12 | 0.06 | 8 | 0.12 | 32 | > 300 | 0.46

The next lines start with results.

Row | Isoelectric point (pI) [1] | pK2 (Acid-base titration (pK); salt form per Table IV) | pK3 (Acid-base titration (pK); value not in brackets) | MIC S. pyogenes C 203 (S. pyogenes C 203) [µg/mL] | MIC Proteus vulgaris X 19H ATCC 881 [2] [µg/mL] | MIC S. epidermidis ATCC 12228 [3] [µg/mL] | MIC S. faecalis ATCC 7080 (S. faecalis ATCC 7080) [µg/mL] | MIC S. pneumoniae UC 41 (S. pneumoniae UC 41) [µg/mL] | MIC E. coli SKF 12140 (E. coli SKF 12140) [µg/mL] | MIC S. aureus Tour (S. aureus Tour) [µg/mL] | MIC Pseudomonas aeruginosa ATCC 10145 [4] [µg/mL] | Compound | ED50, route of administration os. (S. pyogenes L 49) [mg/kg] | ED50, route of administration s.c (S. pyogenes L 49) [mg/kg]
7 | 8.6 |  |  |  |  |  |  |  |  |  |  | CCCCCCN(CCCCCC)CCCNC(=O)C1NC(=O)C2NC(=O)C(NC(=O)C3NC(=O)C4NC(=O)C(Cc5ccc(c(Cl)c5)Oc5cc3cc(c5O)Oc3ccc(cc3Cl)C2O)NC(=O)C(N)c2ccc(O)c(c2)Oc2cc(O)cc4c2)c2ccc(O)c(c2)-c2c(O)cc(O)cc21 (stereo not shown) [Compound 62] |  | 
8 | 5.8 |  |  |  |  |  |  |  |  |  |  | NC1C(=O)NC2Cc3ccc(c(Cl)c3)Oc3cc4cc(c3O)Oc3ccc(cc3Cl)C(O)C3NC(=O)C(NC(=O)C4NC(=O)C(NC2=O)c2cc(O)cc(c2)Oc2cc1ccc2O)c1ccc(O)c(c1)-c1c(O)cc(O)cc1C(C(=O)NCC(=O)O)NC3=O (stereo not shown) [Compound 65] |  | 
9 | 8.1 |  |  | 0.06 | 64 | 0.06 | 0.12 | 0.12 | 8 | 0.06 | 32 | Cl.Cl.NC1C(=O)NC2Cc3ccc(c(Cl)c3)Oc3cc4cc(c3O)Oc3ccc(cc3Cl)C(O)C3NC(=O)C(NC(=O)C4NC(=O)C(NC2=O)c2cc(O)cc(c2)Oc2cc1ccc2O)c1ccc(O)c(c1)-c1c(O)cc(O)cc1C(C(=O)NCCCN1CCOCC1)NC3=O (stereo not shown) [Compound 78] | > 300 | 1.4
10 | 7.8 |  |  | 0.12 (≈ 0.0904 µM) | > 128 | 0.06 (≈ 0.0452 µM) | 0.12 (≈ 0.0904 µM) | 0.12 (≈ 0.0904 µM) | 64 (≈ 48.2 µM) | 0.12 (≈ 0.0904 µM) | > 128 | NCCCCC(NC(=O)C1NC(=O)C2NC(=O)C(NC(=O)C3NC(=O)C4NC(=O)C(Cc5ccc(c(Cl)c5)Oc5cc3cc(c5O)Oc3ccc(cc3Cl)C2O)NC(=O)C(N)c2ccc(O)c(c2)Oc2cc(O)cc4c2)c2ccc(O)c(c2)-c2c(O)cc(O)cc21)C(=O)O (stereo not shown) [Compound 84] | > 300 | 1.65
11 |  |  |  | 0.06 | 32 | 0.06 | 0.12 | 0.12 | 8 | 0.12 | 32 | CN(C)CCCCNC(=O)C1NC(=O)C2NC(=O)C(NC(=O)C3NC(=O)C4NC(=O)C(Cc5ccc(c(Cl)c5)Oc5cc3cc(c5O)Oc3ccc(cc3Cl)C2O)NC(=O)C(N)c2ccc(O)c(c2)Oc2cc(O)cc4c2)c2ccc(O)c(c2)-c2c(O)cc(O)cc21.O=C(O)C(F)(F)F.O=C(O)C(F)(F)F (stereo not shown) [Compound 97] | > 300 | 0.54
12 | 9.0 |  |  | 0.06 (≈ 0.0458 µM) | 128 (≈ 97.6 µM) | 0.06 (≈ 0.0458 µM) | 0.12 (≈ 0.0915 µM) | 0.12 (≈ 0.0915 µM) | 8 (≈ 6.1 µM) | 0.06 (≈ 0.0458 µM) | 64 (≈ 48.8 µM) | CN(C)CCCCCNC(=O)C1NC(=O)C2NC(=O)C(NC(=O)C3NC(=O)C4NC(=O)C(Cc5ccc(c(Cl)c5)Oc5cc3cc(c5O)Oc3ccc(cc3Cl)C2O)NC(=O)C(N)c2ccc(O)c(c2)Oc2cc(O)cc4c2)c2ccc(O)c(c2)-c2c(O)cc(O)cc21 (stereo not shown) [Compound 100] |  | 
13 | 9.1 |  |  | 0.06 (≈ 0.0448 µM) | 128 (≈ 95.6 µM) | 0.06 (≈ 0.0448 µM) | 0.12 (≈ 0.0896 µM) | 0.12 (≈ 0.0896 µM) | 16 (≈ 11.9 µM) | 0.06 (≈ 0.0448 µM) | 128 (≈ 95.6 µM) | CN(C)CCCCCCCNC(=O)C1NC(=O)C2NC(=O)C(NC(=O)C3NC(=O)C4NC(=O)C(Cc5ccc(c(Cl)c5)Oc5cc3cc(c5O)Oc3ccc(cc3Cl)C2O)NC(=O)C(N)c2ccc(O)c(c2)Oc2cc(O)cc4c2)c2ccc(O)c(c2)-c2c(O)cc(O)cc21 (stereo not shown) [Compound 101] |  | 
